{"source": "patent US20240199676A1", "about": "“ANTIVIRAL COMPOUNDS AND METHODS OF MAKING AND USING THE SAME” (Gilead Sciences, Inc., priority 2022, published 2024)", "format_in_all_cases": "cell-based", "key": {"[1]": {"test_system": "Respiratory syncytial virus recombinant with luciferase (RSV-Luc5) in HEp-2 cells", "experiment": "HEp-2 RSV-Luc5 384-well Assay (EC50 RSVFLUC Hep2-384 v2, Ex. V)", "details": "human respiratory syncytial virus, HEp-2, 72 h, read-out: EC50 RSV FLuc Hep-2 384 V2 (per Ex. V)", "excerpt": "Example V: HEp-2 RSV-Luc5 384-well Assay (EC50 RSVFLUC Hep2-384 v2)\nHEp-2 cell line was purchased from ATCC (Manassas, VA Cat #CCL-23) and maintained in Dulbecco's […] (DMEM) (Corning, New York, NY, Cat #15-018CM) supplemented with 10% fetal bovine serum (FBS) (Hyclone, Logan, UT, Cat #SH30071-03) and 1× Penicillin-Streptonycin-L-Glutamine (Corning, New York, NY, Cat #30-009-CI). Cells were passaged 2 times per week to maintain sub-confluent densities and were used for experiments at passage 5-20. Respiratory syncytial virus recombinant with luciferase (RSV-Luc5) (≥1 ×107 TCID50/ml) was purchased from Microbiologics (Saint Cloud, MN). Viral replication was determined in HEp-2 cells in the following manner.\n(§1) Compounds are prepared in 100% DMSO in 384-well polypropylene plates (Greiner, Monroe, NC, Cat #784201) with 8 compounds per plate in grouped replicates of 4 at 10 serially diluted concentrations (1:3). The serially diluted compounds were transferred to low dead volume Echo plates (Labcyte, Sunnyvale, CA, Cat #LP-0200).\nThe test compounds were spotted to 384-well assay plates (Greiner, Monroe, NC, Cat#781091) at 200 nL per well. HEp-2 cells were harvested and suspended in DMEM (supplemented with 10% FBS and 1× Penicillin-Streptonycin-L-Glutamine) and seeded to the pre-spotted assay plates at 4,000 cells per well in 30 μL. RSV-Luc5 viruses were diluted in DMEM (supplemented with 10% FBS and 1× Penicillin-Streptomycin-L-Glutamine) at 200,000 Infectious Units (IU) per mL and 10 μL per well was added to the assay plates containing cells and compounds, for an MOI=0.5. The assay plates were incubated for 3 days at 37° C. and 5% CO2. At the end of incubation, One-Glo reagent (Promega, Madison, WI, Cat #E6120) was prepared. The assay plates and One-Glo reagent were equilibrated to room temperature for at least 15 minutes. 40 μL per well of One-Glo reagent was added and the plates were incubated at room temp for 15 minutes before reading the luminescence signal on an EnVision multimode plate reader (Perkin Elmer, Waltham, MA). Remdesivir was used as positive control and DMSO was used as negative control. Values were normalized to the positive and negative controls (as 0% and 100% replication, respectively) and data was fitted using non-linear regression analysis by Gilead's dose response tool. The EC50 value for each compound was then determined as the concentration reducing the viral replication by 50%."}, "[2]": {"test_system": "Human Rhinovirus 16 (HRV16) in H1-HeLa cells", "experiment": "H1-HeLa HRV-CTG 384-well Assay (Ex. Y), HRV16", "details": "Rhinovirus A, 96 h; H1-HeLa cells, HRV16 MOI 0.25, 4 days, Celltiter-Glo; read-out: EC50 H1-HeLa_HRV16_HRV-CTG 384-well Assay (per Ex. Y)", "excerpt": "(§2) Example Y: H1-HeLa HRV-CTG 384-well Assay\n(§3) H1-Hela cell line (ATCC, Manassas, VA, Cat #CRL-1958) was maintained in Dulbecco's […] (DMEM) (Corning, New York, NY, Cat #15-018CM) supplemented with 10% fetal bovine serum (FBS) (Hyclone, Logan, UT, Cat #SH30071-03), and 1× Penicillin-Streptomycin-L-Glutamine (Corning, New York, NY, Cat #30-009-CI). Cells were passaged 2 times per week to maintain sub-confluent densities and were used for experiments at passage 5-30. The Human Rhinovirus 1B (HRV1B) (ATCC, Manassas, VA, Cat #VR-1645) , Human Rhinovirus 14 (HRV14) (ATCC, Manassas, VA, Cat #VR-284), and Human Rhinovirus 16 (HRV16) (ATCC, Manassas, VA, Cat #BR-283) was obtained through ATCC. Viral infection was monitored by determining viability of H1-HeLa cells as described below.\nas §1, with “Test molecules” for “Compounds”\n(§4) The test compounds were spotted to 384-well assay plates (Greiner, Monroe, NC, Cat#781091) at 200 nL per well using an Echo acoustic dispenser (Labcyte, Sunnyvale, CA). H1-HeLa cells were harvested and suspended in DMEM (supplemented with 2% FBS and 1× Penicillin-Streptomycin-L-Glutamine) and seeded to the pre-spotted assay plates at 5,000 cells per well in 30 μL. HRV1B, HRV14, and HRV16 was diluted in DMEM (supplemented with 2% FBS and 1× Penicillin-Streptomycin-L-Glutamine) at 97.1 million Infectious Units (IU) per mL, 151 million IU per mL and 221 million IU per mL respectively. 10 μL of virus per well was added to the assay plates containing cells and compounds, for an MOI of 0.5, 1.0, and 0.25 respectively. The assay plates were incubated for 4 days at 37° C. and 5% CO2. At the end of incubation, Celltiter-Glo (Promega, Madison, WI, Cat #(Ga7573) was prepared. The assay plates and Celltiter-Glo reagent were equilibrated to room temperature for at least 15 minutes. 40 μL per well of Celltiter-Glo reagent was added and the plates were incubated at room temperature for 15 minutes before reading the luminescence signal on an EnVision multimode plate reader (Perkin Elmer, Waltham, MA). Rupintrivir was used as positive control and DMSO was used as negative control. Values were normalized to the positive and negative controls (as 0% and 100% replication, respectively) and data was fitted using non-linear regression analysis by Gilead's dose response tool. The EC50 value for each compound was defined as the concentration reducing viral replication by 50%."}, "[3]": {"test_system": "Human Rhinovirus 14 (HRV14) in H1-HeLa cells", "experiment": "H1-HeLa HRV-CTG 384-well Assay (Ex. Y), HRV14", "details": "Rhinovirus B, 96 h; H1-HeLa cells, HRV14 MOI 1.0, 4 days, Celltiter-Glo; read-out: EC50 H1-HeLa_HRV14_HRV-CTG 384-well Assay (per Ex Y)", "excerpt": "as §2, §3\nas §1, with “Test molecules” for “Compounds”\nas §4"}, "[4]": {"test_system": "Human Rhinovirus 1B (HRV1B) in H1-HeLa cells", "experiment": "H1-HeLa HRV-CTG 384-well Assay (Ex. Y), HRV1B", "details": "Rhinovirus A, 96 h; H1-HeLa cells, HRV1B MOI 0.5, 4 days, Celltiter-Glo; read-out: EC50 H1-HeLa_HRV1B_HRV-CTG 384-well Assay (per Ex. Y)", "excerpt": "as §2, §3\nas §1, with “Test molecules” for “Compounds”\nas §4"}}}
{"smiles": "CC(C)C(=O)OC[C@@]1(C#N)O[C@@H](c2ccc3c(N)ncnn23)[C@H](O)[C@@H]1O", "note": "[Compound 1, ((2R,3S,4R,5S)-5-(4-aminopyrrolo[2,1-f][1,2,4]triazin-7-yl)-2-cyano-3,4-dihydroxytetrahydrofuran-2-yl)methyl isobutyrate]", "values": [{"measurement": "EC50", "setting": "[1]", "value": 15, "unit": "µM"}, {"measurement": "EC50", "setting": "[2]", "value": 9.31, "unit": "µM"}, {"measurement": "EC50", "setting": "[3]", "value": 5.13, "unit": "µM"}, {"measurement": "EC50", "setting": "[4]", "value": 3.05, "unit": "µM"}]}
{"smiles": "N#C[C@]1(COC(=O)c2ccccc2)O[C@@H](c2ccc3c(N)ncnn23)[C@H](O)[C@@H]1O", "note": "[Compound 2, ((2R,3S,4R,5S)-5-(4-aminopyrrolo[2,1-f][1,2,4]triazin-7-yl)-2-cyano-3,4-dihydroxytetrahydrofuran-2-yl)methyl benzoate]", "values": [{"measurement": "EC50", "setting": "[1]", "value": 36.8, "unit": "µM"}, {"measurement": "EC50", "setting": "[2]", "value": 28.3, "unit": "µM"}, {"measurement": "EC50", "setting": "[3]", "value": 23.9, "unit": "µM"}, {"measurement": "EC50", "setting": "[4]", "value": 9.6, "unit": "µM"}]}
{"smiles": "CC(C)CC(=O)OC[C@@]1(C#N)O[C@@H](c2ccc3c(N)ncnn23)[C@H](O)[C@@H]1O", "note": "[Compound 3, ((2R,3S,4R,5S)-5-(4-aminopyrrolo[2,1-f][1,2,4]triazin-7-yl)-2-cyano-3,4-dihydroxytetrahydrofuran-2-yl)methyl 3-methylbutanoate]", "values": [{"measurement": "EC50", "setting": "[1]", "value": 26.4, "unit": "µM"}, {"measurement": "EC50", "setting": "[2]", "value": 13.2, "unit": "µM"}, {"measurement": "EC50", "setting": "[3]", "value": 9.33, "unit": "µM"}, {"measurement": "EC50", "setting": "[4]", "value": 8.84, "unit": "µM"}]}
{"smiles": "CC(=O)OC[C@@]1(C#N)O[C@@H](c2ccc3c(N)ncnn23)[C@H](O)[C@@H]1O", "note": "[Compound 4, ((2R,3S,4R,5S)-5-(4-aminopyrrolo[2,1-f][1,2,4]triazin-7-yl)-2-cyano-3,4-dihydroxytetrahydrofuran-2-yl)methyl acetate]", "values": [{"measurement": "EC50", "setting": "[1]", "value": 15.7, "unit": "µM"}, {"measurement": "EC50", "setting": "[2]", "value": 10.1, "unit": "µM"}, {"measurement": "EC50", "setting": "[3]", "value": 4.61, "unit": "µM"}, {"measurement": "EC50", "setting": "[4]", "value": 6.38, "unit": "µM"}]}
{"smiles": "CCC(=O)OC[C@@]1(C#N)O[C@@H](c2ccc3c(N)ncnn23)[C@H](O)[C@@H]1O", "note": "[Compound 5, ((2R,3S,4R,5S)-5-(4-aminopyrrolo[2,1-f][1,2,4]triazin-7-yl)-2-cyano-3,4-dihydroxytetrahydrofuran-2-yl)methyl propionate]", "values": [{"measurement": "EC50", "setting": "[1]", "value": 20, "unit": "µM"}, {"measurement": "EC50", "setting": "[2]", "value": 9.84, "unit": "µM"}, {"measurement": "EC50", "setting": "[3]", "value": 10.5, "unit": "µM"}, {"measurement": "EC50", "setting": "[4]", "value": 8.49, "unit": "µM"}]}
{"smiles": "CCCC(=O)OC[C@@]1(C#N)O[C@@H](c2ccc3c(N)ncnn23)[C@H](O)[C@@H]1O", "note": "[Compound 6, ((2R,3S,4R,5S)-5-(4-aminopyrrolo[2,1-f][1,2,4]triazin-7-yl)-2-cyano-3,4-dihydroxytetrahydrofuran-2-yl)methyl butyrate]", "values": [{"measurement": "EC50", "setting": "[1]", "value": 16.8, "unit": "µM"}, {"measurement": "EC50", "setting": "[2]", "value": 8.23, "unit": "µM"}, {"measurement": "EC50", "setting": "[3]", "value": 7.86, "unit": "µM"}, {"measurement": "EC50", "setting": "[4]", "value": 4.11, "unit": "µM"}]}
{"smiles": "N#C[C@]1(COC(=O)C2CC2)O[C@@H](c2ccc3c(N)ncnn23)[C@H](O)[C@@H]1O", "note": "[Compound 7, ((2R,3S,4R,5S)-5-(4-aminopyrrolo[2,1-f][1,2,4]triazin-7-yl)-2-cyano-3,4-dihydroxytetrahydrofuran-2-yl)methyl cyclopropanecarboxylate]", "values": [{"measurement": "EC50", "setting": "[1]", "value": 50, "unit": "µM"}, {"measurement": "EC50", "setting": "[2]", "value": 30.7, "unit": "µM"}, {"measurement": "EC50", "setting": "[3]", "value": 27.1, "unit": "µM"}, {"measurement": "EC50", "setting": "[4]", "value": 11.4, "unit": "µM"}]}
{"smiles": "N#C[C@]1(COC(=O)C2CCC2)O[C@@H](c2ccc3c(N)ncnn23)[C@H](O)[C@@H]1O", "note": "[Compound 8, ((2R,3S,4R,5S)-5-(4-aminopyrrolo[2,1-f][1,2,4]triazin-7-yl)-2-cyano-3,4-dihydroxytetrahydrofuran-2-yl)methyl cyclobutanecarboxylate]", "values": [{"measurement": "EC50", "setting": "[1]", "value": 14.9, "unit": "µM"}, {"measurement": "EC50", "setting": "[2]", "value": 7.74, "unit": "µM"}, {"measurement": "EC50", "setting": "[3]", "value": 5.66, "unit": "µM"}, {"measurement": "EC50", "setting": "[4]", "value": 3.34, "unit": "µM"}]}
{"smiles": "CCC(CC)C(=O)OC[C@@]1(C#N)O[C@@H](c2ccc3c(N)ncnn23)[C@H](O)[C@@H]1O", "note": "[Compound 9, ((2R,3S,4R,5S)-5-(4-aminopyrrolo[2,1-f][1,2,4]triazin-7-yl)-2-cyano-3,4-dihydroxytetrahydrofuran-2-yl)methyl 2-ethylbutanoate]", "values": [{"measurement": "EC50", "setting": "[1]", "value": 28.9, "unit": "µM"}, {"measurement": "EC50", "setting": "[2]", "value": 35.1, "unit": "µM"}, {"measurement": "EC50", "setting": "[3]", "value": 15.5, "unit": "µM"}, {"measurement": "EC50", "setting": "[4]", "value": 21.6, "unit": "µM"}]}
{"smiles": "CC(C)(C)C(=O)OC[C@@]1(C#N)O[C@@H](c2ccc3c(N)ncnn23)[C@H](O)[C@@H]1O", "note": "[Compound 10, ((2R,3S,4R,5S)-5-(4-aminopyrrolo[2,1-f][1,2,4]triazin-7-yl)-2-cyano-3,4-dihydroxytetrahydrofuran-2-yl)methyl pivalate]", "values": [{"measurement": "EC50", "setting": "[1]", "value": 21.8, "unit": "µM"}, {"measurement": "EC50", "setting": "[2]", "value": 14.3, "unit": "µM"}, {"measurement": "EC50", "setting": "[3]", "value": 10.9, "unit": "µM"}, {"measurement": "EC50", "setting": "[4]", "value": 9.77, "unit": "µM"}]}
